Laboratory results: US20110269797A1, “ANLN PROTEIN AS AN ENDOCRINE TREATMENT PREDICTIVE FACTOR” (ATLAS ANTIBODIES AB, priority 2008, published 2011)
Entries after “also recorded” stand apart in the source; their conditions may differ.

Columns and labels:
ERα+/PR− tumors = conditions: follow-up period of 6 years, Dowsett 2005; cited from earlier work
[1] = system: stage II primary breast carcinoma; test: Randomized premenopausal tamoxifen trial, Cohort II TMA, Kaplan-Meier survival analysis by ANLN protein level; type: in vivo, human
Source text: Median age at diagnosis was 45 (25-57) years. Median follow-up was 13.9 years and less than 2% of the patients had received adjuvant chemotherapy. The study design is described in detail elsewhere (Rydén L et al, Eur J Cancer, 2005, 41(2): 256-64). Ethical permission was obtained from the Local Ethics Committees at Lund and Linkoping Universities.
All cases had been histopathologically re-evaluated on hematoxylin and eosin stained slides. TMA:s were constructed by sampling 2×0.6 mm cores per case from areas representative of invasive cancer, using an automated arraying device (ATA-27, Beecher Inc, Sun Prairie, Wis., USA). The TMA:s were prepared and automated IHC was performed as described in section 3 above, using the ANLN protein antibody prepared as described in section 2 above. IHC staining of ER had been performed previously. In line with current clinical praxis, a cut-off at 10% positive nuclei was used to define hormone receptor positivity.
For statistical analyses, categories were based on nuclear fraction (nf). nf was evaluated as in Examples, section 4, above. As with “the fraction of stained cells” in Examples, Section 3 above, nf was classified as ≦1%, 2-25%, 26-75% or >75%. For this purpose the 2-25% group were split into two groups namely 2-10% and >10-25%. Based on the survival trends for all different strata, dichotomized variables were constructed for further statistical analyses. […] Subsequently, groups denoted “high” or “low” were established based on ANLN protein expression. In a first analysis, the “high” group represented a nuclear fraction (nf) of >1%, and the “low” group a nuclear fraction≦1%. In a second analysis, the “high” group represented a nuclear fraction (nf) of >10%, and the “low” group a nuclear fraction≦10%.
In a third analysis, the “high” group represented a nuclear fraction (nf) of 26%, and the “low” group a nuclear fraction≦25%. This classification of samples was used for OS, RFS and BOSS analysis according to the Kaplan-Meier estimator, and the log-rank test was used to compare survival in different strata. All statistical tests were two-sided, and p-values of <[…] were considered significant. All calculations were made with the statistical package SPSS 16.0 (SPSS Inc. Ill., USA).

primary breast cancer = test: Consecutive cohort TMA (Cohort I), survival analysis of tamoxifen-treated ER+ subjects by ANLN protein level; type: in vivo, human; conditions: ER+ subjects given adjuvant tamoxifen; cut off nf 1%; FIG. 6, p=0.018
Source text: Archival formalin-fixed paraffin-embedded tissue from 498 patients diagnosed with primary breast cancer between 1988 and 1992 was collected from the Department of Pathology, Malmo University Hospital, Sweden. The median age of patients was 65 (range 27-96) years and median follow-up time was 128 months (0-207). Information regarding the date of death was obtained from the regional cause-of-death registries for all patients. Ethical permission was obtained from the Local Ethics Committee of Lund University.
All 498 cases of breast cancer were histopathologically reevaluated on slides stained with hematoxylin and eosin. TMA:s were constructed by sampling 2×1.0 mm cores per case from areas representative of invasive cancer, using a manual arraying device (ATA-27, Beecher Inc, Sun Prairie, Wis., USA). The TMA:s were prepared and automated IHC was performed as described in section 3 above, using the ANLN protein antibody prepared as described in section 2 above. IHC staining of ER had been performed previously. […]
For statistical analyses, the nucleic fraction (nf) level was evaluated, in line with what is described in Examples, Section 3 above. The nuclear fraction was subjectively evaluated in accordance to standards used in clinical histo-pathological diagnostics and outcome was classified as ≦1%, 2-25%, 26-75% or >75%. […]

breast cancer = conditions: cited from earlier work

SMILES | recurrence rate compared to patients treated with tamoxifen (ERα+/PR− tumors) | benefit from tamoxifen treatment (RFS, BCSS, OS) ([1]; ER positive ANLN protein low patients (nf≦10%), TAM vs ctrl, FIGS. 14a, 15a, 16a) | impact of tamoxifen treatment on survival (RFS, BCSS, OS) ([1]; ER positive patients with high ANLN protein level (nf>10%), TAM vs ctrl, FIGS. 14b, 15b, 16b) | RFS of ANLN protein low versus ANLN protein high patients treated with tamoxifen ([1]; adjuvant tamoxifen 2 years, cut off 1% and 10%, FIG. 8) | effect of tamoxifen treatment on RFS ([1]; ductal carcinoma subgroup, ANLN protein low (nf≦10%), TAM vs ctrl, FIG. 20a) | impact of tamoxifen treatment on RFS outcome ([1]; ductal carcinoma subgroup, high ANLN protein level (nf>10%), TAM vs ctrl, FIG. 20b) | impact of tamoxifen treatment on RFS outcome ([1]; subjects with high ANLN protein level (nf>10%), TAM 2 years vs ctrl, FIG. 11) | probability of recurrence free survival, ANLN protein low versus high subjects treated with tamoxifen (primary breast cancer) | ERα positive patients that do not respond to tamoxifen treatment (breast cancer; Riggins 2007, Gruvberger-Saal 2007) | breast cancer mortality (breast cancer; five years adjuvant treatment after primary surgery, ER positive tumors, irrespective of lymph node status, EBCTCG 1998)
CC(C)(C#N)c1cc(Cn2cncn2)cc(C(C)(C)C#N)c1 [anastrozole] | halved | – | – | – | – | – | – | – | – | –
CC/C(=C(\c1ccccc1)c1ccc(OCCN(C)C)cc1)c1ccccc1 [tamoxifen] | – | particularly beneficial; also recorded: at least slightly, benefit | limited or no impact | significantly better | effective | no positive impact on the outcome | no positive impact on the outcome | significantly better | 30-40% | reduces
